Reference: patent US9113629B2, “4-amino-6-(4-substituted-phenyl)-picolinates and 6-amino-2-(4-substituted-phenyl)-pyrimidine-4-carboxylates and their use as herbicides” (DOW AGROSCIENCES LLC, priority 2013, dated 2015)

What was measured:
Assay in all cases: Post-emergent Test III, herbicidal activity in wheat and barley
Format in all cases: in vivo
[1] = system: KCHSC: kochia (Kochia scoparia); details: Table 8, 21 d; for pest or weed control at 35 g/ha / pest or weed control at 70 g/ha: Bassia scoparia, post-emergence, 504 h, post-emergent, read-out: Visual Growth Reduction (%) 21 Days After Application KCHSC; for pest or weed control at 35 g/ha: 35 g ai/ha; for pest or weed control at 70 g/ha: 70 g ai/ha; for GR50 KCHSC: dose for 50 percent growth reduction; for GR50 KCHSC / GR80 KCHSC: probit analysis; for GR80 KCHSC: dose for 80 percent growth reduction
Method in brief: (§1)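 GR20, GR50, GR80 and GR90 come from probit analysis of visual injury scores (0 = none, 100 = complete kill) taken 21 d after treatment. Foliar application was by track sprayer delivering 187 L/ha at five rates, from high down to 1/16×, onto greenhouse plants at the 2–3 leaf stage, with solvent-blank controls.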

[2] = system: HORSS: barley, including spring and winter (Hordeum vulgare); details: Table 8, 21 d; for pest or weed control at 35 g/ha / pest or weed control at 70 g/ha: Hordeum vulgare, post-emergence, 504 h, post-emergent, read-out: Visual Growth Reduction (%) 21 Days After Application HORSS; for pest or weed control at 35 g/ha: 35 g ai/ha; for pest or weed control at 70 g/ha: 70 g ai/ha; for GR20 HORSS: dose for 20 percent growth reduction, probit analysis
Method in brief: as §1

[3] = system: SASKR: Russian thistle (Salsola iberica); details: Table 8, 21 d; for pest or weed control at 35 g/ha / pest or weed control at 70 g/ha: Salsola tragus, post-emergence, 504 h, post-emergent, read-out: Visual Growth Reduction (%) 21 Days After Application SASKR; for pest or weed control at 35 g/ha: 35 g ai/ha; for pest or weed control at 70 g/ha: 70 g ai/ha; for GR50 SASKR: dose for 50 percent growth reduction; for GR50 SASKR / GR80 SASKR: probit analysis; for GR80 SASKR: dose for 80 percent growth reduction
Method in brief: as §1

LAMSS = details: Table 8, 21 d; for GR50 LAMSS: dose for 50 percent growth reduction; for GR50 LAMSS / GR80 LAMSS: probit analysis; for GR80 LAMSS: dose for 80 percent growth reduction; for pest or weed control at 35 g/ha / pest or weed control at 70 g/ha: post-emergence, 504 h, post-emergent, read-out: Visual Growth Reduction (%) 21 Days After Application LAMSS; for pest or weed control at 35 g/ha: 35 g ai/ha; for pest or weed control at 70 g/ha: 70 g ai/ha
Method in brief: as §1

[4] = system: VERPE: bird's-eye speedwell (veronica persica); details: Table 8, 21 d; for GR50 VERPE: dose for 50 percent growth reduction; for GR50 VERPE / GR80 VERPE: probit analysis; for GR80 VERPE: dose for 80 percent growth reduction; for pest or weed control at 35 g/ha / pest or weed control at 70 g/ha: Veronica persica, post-emergence, 504 h, post-emergent, read-out: Visual Growth Reduction (%) 21 Days After Application VERPE; for pest or weed control at 35 g/ha: 35 g ai/ha; for pest or weed control at 70 g/ha: 70 g ai/ha
Method in brief: as §1

[5] = system: TRZSS: wheat, including spring and winter (Triticum aestivum); details: Table 8, 21 d; for GR20 TRZSS: dose for 20 percent growth reduction, probit analysis; for pest or weed control at 35 g/ha / pest or weed control at 70 g/ha: Triticum aestivum, post-emergence, 504 h, post-emergent, read-out: Visual Growth Reduction (%) 21 Days After Application TRZSS; for pest or weed control at 35 g/ha: 35 g ai/ha; for pest or weed control at 70 g/ha: 70 g ai/ha
Method in brief: as §1

[6] = system: VIOSS: wild pansy (Viola tricolor), field violet (Viola arvensis); details: Table 8, 21 d; for GR50 VIOSS: dose for 50 percent growth reduction; for GR50 VIOSS / GR80 VIOSS: probit analysis; for GR80 VIOSS: dose for 80 percent growth reduction; for pest or weed control at 35 g/ha / pest or weed control at 70 g/ha: Viola tricolor, post-emergence, 504 h, post-emergent, read-out: Visual Growth Reduction (%) 21 Days After Application VIOSS; for pest or weed control at 35 g/ha: 35 g ai/ha; for pest or weed control at 70 g/ha: 70 g ai/ha
Method in brief: as §1

[7] = system: MATSS: scented mayweed (Matricaria chamomilla), pineappleweed (Matricaria matricarioides); details: Table 8, 21 d; for pest or weed control at 35 g/ha / pest or weed control at 70 g/ha: Matricaria chamomilla, post-emergence, 504 h, post-emergent, read-out: Visual Growth Reduction (%) 21 Days After Application MATSS; for pest or weed control at 35 g/ha: 35 g ai/ha; for pest or weed control at 70 g/ha: 70 g ai/ha; for GR50 MATSS: dose for 50 percent growth reduction; for GR50 MATSS / GR80 MATSS: probit analysis; for GR80 MATSS: dose for 80 percent growth reduction
Method in brief: as §1

Structure (SMILES)	pest or weed control at 35 g/ha [1] [%]	pest or weed control at 70 g/ha [1] [%]	GR50 KCHSC [1] [g ai/ha]	GR80 KCHSC [1] [g ai/ha]	pest or weed control at 35 g/ha [2] [%]	pest or weed control at 70 g/ha [2] [%]	GR20 HORSS [2] [g ai/ha]	pest or weed control at 35 g/ha [3] [%]	pest or weed control at 70 g/ha [3] [%]	GR50 SASKR [3] [g ai/ha]	GR80 SASKR [3] [g ai/ha]	GR50 LAMSS (LAMSS) [g ai/ha]	GR80 LAMSS (LAMSS) [g ai/ha]	pest or weed control at 35 g/ha (LAMSS) [%]	pest or weed control at 70 g/ha (LAMSS) [%]	GR50 VERPE [4] [g ai/ha]	GR80 VERPE [4] [g ai/ha]	pest or weed control at 35 g/ha [4] [%]	pest or weed control at 70 g/ha [4] [%]	GR20 TRZSS [5] [g ai/ha]	further results
Nc1cc(-c2ccc(Br)c(F)c2)nc(C(=O)O)c1Cl [Compound 110, 4-Amino-6-(4-bromo-3-fluorophenyl)-3-chloropicolinic acid]	95 to 100	95 to 100	1	1	85 to 94	95 to 100	1	75 to 84	85 to 94	1	30	1	1	95 to 100	95 to 100	>140	>140	0 to 29	0 to 29	1	pest or weed control at 35 g/ha [5]: 85 to 94%; pest or weed control at 70 g/ha [5]: 85 to 94%; GR50 VIOSS [6]: 51 g ai/ha; GR80 VIOSS [6]: 144 g ai/ha; pest or weed control at 35 g/ha [6]: 30 to 44%; pest or weed control at 70 g/ha [6]: 60 to 74%; pest or weed control at 35 g/ha [7]: 60 to 74%; pest or weed control at 70 g/ha [7]: 85 to 94%; GR50 MATSS [7]: 10 g ai/ha; GR80 MATSS [7]: 37 g ai/ha
COc1c(N)nc(-c2ccc(Br)c(F)c2)nc1C(=O)O [Compound 113, 6-Amino-2-(4-bromo-3-fluorophenyl)-5-methoxypyrimidine-4-carboxylic acid]	95 to 100	95 to 100	3	10	85 to 94	95 to 100	1	75 to 84	85 to 94	5	36	1	4	95 to 100	95 to 100	3	18	85 to 94	85 to 94	1	pest or weed control at 35 g/ha [5]: 85 to 94%; pest or weed control at 70 g/ha [5]: 85 to 94%; GR50 VIOSS [6]: 4 g ai/ha; GR80 VIOSS [6]: 11 g ai/ha; pest or weed control at 35 g/ha [6]: 95 to 100%; pest or weed control at 70 g/ha [6]: 95 to 100%; pest or weed control at 35 g/ha [7]: 85 to 94%; pest or weed control at 70 g/ha [7]: 95 to 100%; GR50 MATSS [7]: 4 g ai/ha; GR80 MATSS [7]: 15 g ai/ha
